Reference: the CheMixHub viscosity set
Where “and” joins values, the source holds several entries; their conditions need not be identical. Identical values can stand only once. ± gives the uncertainty stated by the source.

Experiments:
[1] = xn = mol fraction of the nth substance listed

C=CC[n+]1ccn(C)c1.[Cl-]
Settings	viscosity [mPa·s]
298.15 K, 101 kPa	254.5 ± 10

CC(C)C1CCCCC1
100 kPa
Settings	viscosity
293.15 K	1.098 ± 0.023 mPa·s
303.15 K	0.949 ± 0.02 mPa·s and 0.95 ± 0.02 mPa·s
308.15 K	0.885 ± 0.019 mPa·s and 0.889 ± 0.019 mPa·s
313.15 K	0.83 ± 0.018 mPa·s and 0.833 ± 0.018 mPa·s
318.15 K	0.781 ± 0.017 mPa·s and 0.783 ± 0.017 mPa·s
323.15 K	0.736 ± 0.016 mPa·s

CC(Cl)(Cl)Cl
viscosity
Settings	101 kPa	101.3 kPa	101.32 kPa	101.33 kPa
303.15 K	0.7243 ± 0.0059 mPa·s and 0.7245 ± 0.019 mPa·s	0.7275 ± 0.0062 mPa·s	0.642 ± 0.064 mPa·s and 0.7243 ± 0.0088 mPa·s	0.7243 ± 0.0053 mPa·s
313.15 K	–	–	0.583 ± 0.058 mPa·s	–

CC/C(C)=N/O
101.3 kPa
Settings	viscosity
293.15 K	4.767 ± 0.031 mPa·s
298.15 K	4.016 ± 0.026 mPa·s and 4.02 ± 0.026 mPa·s
303.15 K	3.437 ± 0.022 mPa·s

CCCCCBr
101 kPa
Settings	viscosity [mPa·s]
293.15 K	0.798 ± 0.017
303.15 K	0.709 ± 0.015
308.15 K	0.6509 ± 0.0054
313.15 K	0.637 ± 0.014
323.15 K	0.574 ± 0.012

CCCCCCCCn1cc[n+](C)c1.[Cl][Fe-]([Cl])([Cl])[Cl]
101 kPa
Settings	viscosity [mPa·s]
293.15 K	167 ± 9.3
298.15 K	133.2 ± 6.8
303.15 K	106 ± 5
308.15 K	84.71 ± 3.8
313.15 K	68.3 ± 2.9
318.15 K	55.87 ± 2.3
323.15 K	46.6 ± 2

CCCC[N+](CCCC)(CCCC)CCCC.[OH-]
viscosity [mPa·s]
Settings	298.15 K	303.15 K	308.15 K	313.15 K
100 kPa	6.69 ± 0.14	6.49 ± 0.14	6.29 ± 0.13	6.13 ± 0.13
101 kPa	6.69	6.49	6.29	6.13

CCn1cc[n+](CCOC)c1.N#C[S-]
100 kPa
Settings	viscosity [mPa·s]
293.15 K	70.77 ± 3.9
298.15 K	55.77 ± 3
303.15 K	44.34 ± 2.4
308.15 K	36 ± 2
313.15 K	29.73 ± 1.6
318.15 K	24.89 ± 1.4

COC(=O)c1ccccc1C(=O)OC
101 kPa
Settings	viscosity [mPa·s]
293.15 K	17.63 ± 0.54
298.15 K	13.8 ± 0.42
303.15 K	11.07 ± 0.34
308.15 K	9.064 ± 0.28
313.15 K	7.558 ± 0.23
318.15 K	6.4 ± 0.2
323.15 K	5.493 ± 0.17

O=CC(Br)(Br)Br
101.33 kPa
Settings	viscosity [mPa·s]
293.15 K	6.81 ± 0.09
313.15 K	3.72 ± 0.06

O=CO
viscosity
Settings	293.15 K	298.15 K	303.15 K	308.15 K	313.15 K	318.15 K	323.15 K
101 kPa	–	–	1.43 ± 0.029 mPa·s and 1.434 ± 0.029 mPa·s (2×)	1.304 ± 0.034 mPa·s	–	1.089 ± 0.029 mPa·s	0.9767 ± 0.026 mPa·s
101.33 kPa	1.959 ± 0.02 mPa·s	1.51 ± 0.08 mPa·s	1.36 ± 0.07 mPa·s	1.25 ± 0.06 mPa·s	1.291 ± 0.013 mPa·s and 1.15 ± 0.06 mPa·s	–	–

O=CO + O=[N+]([O-])c1ccccc1
viscosity [mPa·s], [1], 101 kPa
Settings	x1 = 0.1791	x1 = 0.2956	x1 = 0.4132	x1 = 0.5229	x1 = 0.6396	x1 = 0.7402	x1 = 0.8361
298.15 K	1.676 ± 0.044	1.636 ± 0.043	1.604 ± 0.043	1.591 ± 0.042	1.593 ± 0.042	1.592 ± 0.042	1.576 ± 0.042
323.15 K	1.114 ± 0.029	1.084 ± 0.029	1.054 ± 0.028	1.043 ± 0.028	1.025 ± 0.027	1.029 ± 0.027	1.005 ± 0.027

C1CN2CN3CCN(CN1C3)C2 + [2H]O[2H]
viscosity [mPa·s], [1], 101 kPa
Settings	x1 = 0.004058	x1 = 0.008015	x1 = 0.01192	x1 = 0.01581	x1 = 0.02009
293.15 K	1.263 ± 0.022	1.307 ± 0.022	1.389 ± 0.022	1.485 ± 0.023	1.602 ± 0.023
298.15 K	1.128 ± 0.022	1.174 ± 0.022	1.233 ± 0.022	1.315 ± 0.022	1.426 ± 0.023
300.15 K	1.018 ± 0.021	1.066 ± 0.022	1.131 ± 0.022	1.225 ± 0.022	1.352 ± 0.022
305.15 K	0.918 ± 0.021	0.975 ± 0.021	1.042 ± 0.021	1.133 ± 0.022	1.251 ± 0.022

CC(Cl)(Cl)Cl + c1ccccc1
[1], 303.15 K, 101 kPa
Settings	viscosity [mPa·s]
x1 = 0.1318	0.5946 ± 0.015
x1 = 0.2306	0.614 ± 0.016
x1 = 0.3381	0.6341 ± 0.016
x1 = 0.4104	0.6461 ± 0.017
x1 = 0.4894	0.6588 ± 0.017
x1 = 0.5844	0.6709 ± 0.017
x1 = 0.6716	0.6831 ± 0.018
x1 = 0.7484	0.6926 ± 0.018
x1 = 0.8648	0.706 ± 0.018
x1 = 0.9221	0.7138 ± 0.018

CC(O)c1ccccc1 (centres undefined) + c1ccccc1
[1], 293.15 K, 101.32 kPa
Settings	viscosity [mPa·s]
x1 = 0.01616	0.6575 ± 0.13
x1 = 0.05419	0.708 ± 0.14
x1 = 0.09606	0.7832 ± 0.16
x1 = 0.1306	0.85 ± 0.17
x1 = 0.1766	0.9508 ± 0.19

CCCCCBr + c1ccccc1
[1], 308.15 K, 101 kPa
Settings	viscosity [mPa·s]
x2 = 0.0961	0.6279 ± 0.0051
x2 = 0.2061	0.6028 ± 0.0048
x2 = 0.2972	0.5854 ± 0.0045
x2 = 0.3978	0.5636 ± 0.0043
x2 = 0.4978	0.5452 ± 0.0041
x2 = 0.5868	0.5316 ± 0.0039
x2 = 0.7022	0.5149 ± 0.0037
x2 = 0.8752	0.5028 ± 0.0036
x2 = 0.9275	0.503 ± 0.0036

O=CO + c1ccncc1
viscosity [mPa·s], [1], 101 kPa
Settings	298.15 K	323.15 K
x1 = 0.1605	0.9921 ± 0.026	0.7018 ± 0.019
x1 = 0.3041	1.235 ± 0.033	0.8411 ± 0.022
x1 = 0.4426	1.783 ± 0.047	1.154 ± 0.031
x1 = 0.5254	2.414 ± 0.064	1.515 ± 0.04
x1 = 0.6438	4.255 ± 0.11	2.347 ± 0.063
x1 = 0.7065	5.476 ± 0.15	2.846 ± 0.077
x1 = 0.7478	6.13 ± 0.17	3.143 ± 0.085
x1 = 0.7762	6.161 ± 0.17	3.202 ± 0.087
x1 = 0.8243	5.312 ± 0.14	2.873 ± 0.077
x1 = 0.8859	3.778 ± 0.1	2.192 ± 0.058
x1 = 0.9381	2.657 ± 0.071	1.616 ± 0.043
